Common to all, as to assay type: cell membranes
The target of assay [1] is Neuronal acetylcholine receptor; alpha4/beta2 (Rattus norvegicus, UniProt P09483+P12390). Briefly: Displacement of [3H]epibatidine from alpha-4-beta-2 nAchR in rat brain cortex membrane.
The target of assay [2] is Neuronal acetylcholine receptor subunit alpha-7 (Rattus norvegicus, UniProt Q05941). Briefly: Displacement of [125I]alpha-Bungarotoxin from alpha-7 nAchR in rat brain cortex membrane. Background: Loss of bound radioactivity is the signal in a displacement assay; it reports binding, not function.
For assay [3], the target named is T1, Adrenergic receptor alpha-2 (Rattus norvegicus, UniProt P22086+P19328+P22909).
T1 sequence (P22086 whole entry): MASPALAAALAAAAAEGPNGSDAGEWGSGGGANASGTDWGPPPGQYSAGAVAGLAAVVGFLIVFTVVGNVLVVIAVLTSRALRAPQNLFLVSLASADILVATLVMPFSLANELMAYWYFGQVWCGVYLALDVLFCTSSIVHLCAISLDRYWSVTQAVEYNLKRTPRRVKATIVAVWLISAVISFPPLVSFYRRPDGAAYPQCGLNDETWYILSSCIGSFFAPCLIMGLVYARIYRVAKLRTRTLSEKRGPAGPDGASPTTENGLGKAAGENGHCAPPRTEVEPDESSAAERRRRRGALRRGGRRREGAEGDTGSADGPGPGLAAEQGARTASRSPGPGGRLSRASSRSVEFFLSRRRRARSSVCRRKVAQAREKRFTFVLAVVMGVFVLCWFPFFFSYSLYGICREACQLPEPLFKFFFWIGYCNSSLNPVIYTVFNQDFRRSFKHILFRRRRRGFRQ
T1 sequence (P19328 whole entry): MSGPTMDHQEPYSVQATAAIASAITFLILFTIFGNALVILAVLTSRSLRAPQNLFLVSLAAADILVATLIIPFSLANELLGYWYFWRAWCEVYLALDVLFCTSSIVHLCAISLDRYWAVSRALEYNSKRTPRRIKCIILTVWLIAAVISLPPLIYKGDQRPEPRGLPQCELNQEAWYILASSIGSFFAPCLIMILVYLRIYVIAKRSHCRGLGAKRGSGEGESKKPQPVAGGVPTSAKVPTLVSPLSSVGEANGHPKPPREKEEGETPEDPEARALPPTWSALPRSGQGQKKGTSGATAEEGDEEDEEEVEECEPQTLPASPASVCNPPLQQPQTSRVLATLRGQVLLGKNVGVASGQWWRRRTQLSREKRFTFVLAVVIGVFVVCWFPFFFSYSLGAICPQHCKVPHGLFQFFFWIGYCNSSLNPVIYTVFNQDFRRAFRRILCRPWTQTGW
T1 sequence (P22909 whole entry): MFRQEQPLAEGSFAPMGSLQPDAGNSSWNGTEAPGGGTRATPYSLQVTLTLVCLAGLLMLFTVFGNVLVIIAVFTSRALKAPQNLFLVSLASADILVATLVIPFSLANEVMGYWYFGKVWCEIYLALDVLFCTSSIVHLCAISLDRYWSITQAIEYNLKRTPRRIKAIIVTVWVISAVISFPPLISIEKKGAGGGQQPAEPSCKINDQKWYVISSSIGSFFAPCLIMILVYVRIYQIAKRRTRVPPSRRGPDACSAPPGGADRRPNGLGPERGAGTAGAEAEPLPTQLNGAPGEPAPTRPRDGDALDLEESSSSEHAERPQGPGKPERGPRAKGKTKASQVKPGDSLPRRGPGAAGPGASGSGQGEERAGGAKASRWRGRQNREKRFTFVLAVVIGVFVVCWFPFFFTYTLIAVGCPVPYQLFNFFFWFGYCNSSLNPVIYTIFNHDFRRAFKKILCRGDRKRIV
Briefly: Displacement of [3H]RS 79948-197 from alpha-2 adrenergic receptor in rat brain cortex membrane.

Chain of Neuronal acetylcholine receptor subunit alpha-7 (Q05941 whole entry): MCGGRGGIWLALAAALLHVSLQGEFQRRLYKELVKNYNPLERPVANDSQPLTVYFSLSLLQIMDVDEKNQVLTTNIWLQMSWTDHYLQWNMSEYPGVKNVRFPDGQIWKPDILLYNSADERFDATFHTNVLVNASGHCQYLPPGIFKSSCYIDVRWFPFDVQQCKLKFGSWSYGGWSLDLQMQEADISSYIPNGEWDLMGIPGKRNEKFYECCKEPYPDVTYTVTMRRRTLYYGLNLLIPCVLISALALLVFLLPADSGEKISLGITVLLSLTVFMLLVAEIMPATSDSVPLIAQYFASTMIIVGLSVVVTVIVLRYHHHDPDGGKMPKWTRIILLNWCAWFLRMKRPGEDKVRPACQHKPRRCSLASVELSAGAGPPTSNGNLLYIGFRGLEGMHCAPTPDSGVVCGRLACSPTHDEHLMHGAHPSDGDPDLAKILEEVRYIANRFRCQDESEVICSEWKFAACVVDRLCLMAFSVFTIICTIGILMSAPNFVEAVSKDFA
Chain of Neuronal acetylcholine receptor; alpha4/beta2 (P09483 whole entry): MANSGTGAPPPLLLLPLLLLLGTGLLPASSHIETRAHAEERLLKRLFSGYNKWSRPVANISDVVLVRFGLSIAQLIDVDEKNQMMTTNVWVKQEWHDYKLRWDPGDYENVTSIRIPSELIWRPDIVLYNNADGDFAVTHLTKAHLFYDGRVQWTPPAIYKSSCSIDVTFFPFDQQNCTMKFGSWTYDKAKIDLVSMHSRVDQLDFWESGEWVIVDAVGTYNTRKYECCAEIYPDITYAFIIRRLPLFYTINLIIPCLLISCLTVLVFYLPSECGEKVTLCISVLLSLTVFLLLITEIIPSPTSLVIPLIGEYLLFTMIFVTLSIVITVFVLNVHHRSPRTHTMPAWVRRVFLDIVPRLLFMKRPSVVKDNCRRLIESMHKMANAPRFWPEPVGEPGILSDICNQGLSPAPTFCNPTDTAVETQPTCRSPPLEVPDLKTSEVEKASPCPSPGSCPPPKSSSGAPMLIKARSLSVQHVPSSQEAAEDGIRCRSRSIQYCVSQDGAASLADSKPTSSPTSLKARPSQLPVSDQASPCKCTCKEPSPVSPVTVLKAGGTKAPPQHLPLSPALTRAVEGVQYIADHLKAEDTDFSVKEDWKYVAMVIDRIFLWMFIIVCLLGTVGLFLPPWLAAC
Chain of Neuronal acetylcholine receptor; alpha4/beta2 (P12390 whole entry): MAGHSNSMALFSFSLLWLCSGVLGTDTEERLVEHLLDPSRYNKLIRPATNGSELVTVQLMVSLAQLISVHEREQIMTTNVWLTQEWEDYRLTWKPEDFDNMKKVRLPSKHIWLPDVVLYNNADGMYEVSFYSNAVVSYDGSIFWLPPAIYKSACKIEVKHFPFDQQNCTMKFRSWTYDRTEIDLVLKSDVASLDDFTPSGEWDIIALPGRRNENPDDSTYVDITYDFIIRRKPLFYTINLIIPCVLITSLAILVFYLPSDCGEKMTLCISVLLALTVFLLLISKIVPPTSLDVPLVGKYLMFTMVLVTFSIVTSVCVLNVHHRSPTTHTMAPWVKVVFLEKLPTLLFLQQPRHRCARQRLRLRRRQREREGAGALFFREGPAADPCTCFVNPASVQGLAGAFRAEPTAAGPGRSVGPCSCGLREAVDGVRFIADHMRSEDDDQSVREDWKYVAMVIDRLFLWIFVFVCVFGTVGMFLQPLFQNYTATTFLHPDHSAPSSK

Usually Ki stands for a dissociation constant, usually derived from enzyme kinetics or from competition with a known ligand. A lower Ki goes with higher affinity. In the case of `CN1CCC[C@H]1[C@H]1CNC(=O)O1`, the figures for the Ki in assay [1] and in assay [2] were 35 µM and 100 µM, respectively.

As to `CN1CCC[C@@H]1[C@@H]1CNC(=O)O1`, the Ki was determined as 37 µM in assay [1] and 43 µM in assay [2].

As to `CN1CCC[C@H]1[C@H]1COc2ccccc2O1.Cl`, the figures for the inhibitory constant (Ki) in assay [1], in assay [2] and in assay [3] were 0.47 µM, 14.6 µM and 1.67 µM, respectively.

As for `CN1CCC[C@@H]1[C@@H]1COc2ccccc2O1.Cl`, the inhibition constant (Ki) is 43.8 µM in assay [1], 14.8 µM in assay [2] and 6.67 µM in assay [3].

As to `Cl.c1ccc2c(c1)OC[C@@H]([C@H]1CCCN1)O2`, the values for the Ki in assay [1], in assay [2] and in assay [3] were 11.6 µM, 27 µM and 6.33 µM, respectively.

`CN1CCC[C@@H]1[C@H]1CNC(=O)O1`: the Ki in assay [1] turned out to be 40 µM; in assay [2], 100 µM.

For `Cl.c1ccc2c(c1)OC[C@H]([C@H]1CCCN1)O2`, the inhibitory constant (Ki) came out at 88 µM in assay [1], 14.7 µM in assay [2] and 14 µM in assay [3].

Regarding `CN1CCC[C@H]1[C@@H]1COc2ccccc2O1`, the inhibition constant Ki amounted to 0.26 µM in assay [1] and 21 µM in assay [2].

For the compound `CN1CCC[C@@H]1[C@H]1COc2ccccc2O1`, the Ki in assay [1] is 12.5 µM; in assay [2], 35 µM.

Consider `Cl.c1ccc2c(c1)OC[C@H]([C@@H]1CCCN1)O2`, for which the inhibition constant (Ki) in assay [1] was determined as 14.4 µM; in assay [2] it was 32.2 µM; in assay [3], 0.64 µM.

With `CN1CCC[C@H]1[C@@H]1CNC(=O)O1`, the Ki in assay [1] was 2.7 µM; in assay [2], 21 µM.

With `Cl.c1ccc2c(c1)OC[C@@H]([C@@H]1CCCN1)O2`, the Ki turned out to be 2.1 µM in assay [1], 36 µM in assay [2] and 1.35 µM in assay [3].

(Values after ChEMBL document CHEMBL1143264 (Bioorg Med Chem Lett, 2009).)
